The results in this text go back to US7728158B2, “PPAR activity regulators” (Ajinomoto Co., Inc., priority 2006, dated 2010).

One test deals with T1, PPAR-γ (Homo sapiens, UniProt P37231).
T1 construct: expressed in transfected cells; host or cells: CV-1 (African green monkey kidney)
T1 sequence (P37231 204-505): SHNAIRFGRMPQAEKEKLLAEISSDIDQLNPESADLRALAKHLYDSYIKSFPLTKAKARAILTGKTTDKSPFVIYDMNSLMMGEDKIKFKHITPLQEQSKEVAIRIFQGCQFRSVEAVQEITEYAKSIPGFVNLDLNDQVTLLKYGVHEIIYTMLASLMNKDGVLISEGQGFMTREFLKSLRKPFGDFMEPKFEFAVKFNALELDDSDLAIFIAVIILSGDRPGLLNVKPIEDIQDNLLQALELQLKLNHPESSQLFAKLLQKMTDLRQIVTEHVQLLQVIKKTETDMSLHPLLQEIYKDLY
The test can be described thus: PPAR-γ reporter assay (GAL4 luciferase, CV-1 cells). As to conditions: induction ratio of luciferase activity at 25 μM, activity without tested compound = 1, hGR-GAL4-hPPAR-γ. The class given is cell-based. The protocol:
The reporter assay of PPAR-γ was conducted by using the following plasmids in accordance with the known report (Steven A. Kliwer et al., The Journal of Biological Chemistry Vol. 270, No. 22: 12953-12956, 1995).
As luciferase expressing plasmid, used was the plasmid which introduces the sequence wherein 5 yeast GAL4 binding sequences, UAS, are tandemly connected to the upstream of the thymidine kinase promoter of pTAL-Luc (#6252-1, produced by Clontech) (UAS×5-TK-Luc) (1).
As PPAR-γ receptor expressing plasmid, used was the plasmid which introduces the N-terminal domain of human GR (1-76aa), the yeast GAL4 DNA binding domain (1-147aa) and PPAR-γ2 ligand binding domain (204-505aa) to NotI site and SalI site of pExchange-1 core vector (#211176, produced by Stratagene) (hGR-GAL4-hPPAR-γ) (2). The plasmid mixed solution used in the reporter assay of PPAR-γ contains above (1), (2) and plasmid pcDNA3.1(−) as a carrier in the weight ratio of 4:1:3.
(§1) CV-1 cells were seeded on the 384-well white plate (781080, produced by Greiner) to become 1.5×10^4 cells/30 μL per one well. Then, gene transfer was conducted in accordance with the manual by using OPTI-MEM I (11058-021, produced by GIBCO), FuGENE6 (1-815-075, produced by Roche) and the above PPAR-γ plasmid mixed solution. The incubation was conducted in a carbon-dioxide incubator at 37° C. for 6 to 8 hours. Then, a diluted tested compound was added thereto and incubated in a carbon-dioxide incubator at 37° C. for 16 to 18 hours. Britelite (6016979, produced by PerkinElmer) was further added thereto and stirred, and the luciferase activity was measured with EnVision (produced by PerkinElmer).
(§2) Specifying the luciferase activity without addition of a tested compound as 1, the induction ratio of the luciferase activity by each tested compound was calculated.
On the technique in general: Reporter assays use an easily measured gene product as a stand-in for the process of interest.

The target in a further test is T2, PPAR-α (Homo sapiens, UniProt Q07869).
T2 construct: expressed in transfected cells; host or cells: CV-1 (African green monkey kidney)
T2 sequence (Q07869 167-468): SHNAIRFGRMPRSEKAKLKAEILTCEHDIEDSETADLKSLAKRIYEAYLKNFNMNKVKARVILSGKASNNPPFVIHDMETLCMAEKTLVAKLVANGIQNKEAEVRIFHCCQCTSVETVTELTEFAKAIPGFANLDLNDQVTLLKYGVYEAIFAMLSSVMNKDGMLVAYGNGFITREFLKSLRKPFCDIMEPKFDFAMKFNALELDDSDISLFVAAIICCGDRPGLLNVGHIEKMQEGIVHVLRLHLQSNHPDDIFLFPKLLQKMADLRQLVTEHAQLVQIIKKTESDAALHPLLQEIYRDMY
The test can be described thus: PPAR-α reporter assay (GAL4 luciferase, CV-1 cells). The class given is cell-based. As to conditions: induction ratio of luciferase activity at 50 μM, activity without tested compound = 1, hGR-GAL4-hPPAR-α. The procedure: The reporter assay of PPAR (peroxisome proliferator-activated receptor)-α was conducted by using the following plasmids in accordance with the known report (Steven A. Kliwer et al., The Journal of Biological Chemistry Vol. 270, No. 22: 12953-12956, 1995).
As luciferase expressing plasmid, used was the plasmid which introduces the sequence wherein 5 yeast GAL4 binding sequences, UAS (upstream activating sequence), are tandemly connected to the upstream of the thymidine kinase promoter of pTAL-Luc (#6252-1, produced by Clontech) (UAS×5-TK-Luc) (1).
As PPAR-α receptor expressing plasmid, used was the plasmid which introduces the N-terminal domain of human GR (1-76aa), the yeast GAL4 DNA binding domain (1-147aa) and PPAR-α ligand binding domain (167-468aa) to NotI site and SalI site of pExchange-1 core vector (#211176, produced by Stratagene) (hGR-GAL4-hPPAR-α) (2). The plasmid mixed solution used in the reporter assay of PPAR-α contains above (1), (2) and plasmid pcDNA3.1(−) as a carrier in the weight ratio of 4:1:3.
The medium having the following composition was used for seeding cell line CV-1 used in the reporter assay, derived from the kidney of an African green monkey, on the plate; and for diluting the tested compounds. Used was Dulbecco modified Eagle medium (D2902 without phenol red, produced by SIGMA) to which 3.7 g/L of NaHCO3, 3.5 g/L of D-glucose and 10% v/v fetal bovine serum were added.
as §1, with “PPAR-α” for “PPAR-γ”
as §2

Take `CCCCCCCCCCCC(=O)NC(C)C(=O)O` (racemic) [Example 13]: at PPAR-γ, the PPAR-γ induction ratio was found to be 15.4. At PPAR-α, the PPAR-α induction ratio came out at 25.0.

On to `CCCCCCCCCCCC(=O)NC(C)(CC)C(=O)O` (racemic) [Example 16], for which the PPAR-γ induction ratio on PPAR-γ was found to be 18.5. At PPAR-α, the PPAR-α induction ratio is listed as 23.0.

For the compound `CCCCCCCCCCCC(=O)NC(C)(C(=O)O)C(C)C` (racemic) [Example 18], the PPAR-γ induction ratio on PPAR-γ turned out to be 24.0. Besides, the PPAR-α induction ratio at PPAR-α is given as 39.0.

Turning to `CCCCCCCCCCCC(=O)NC(C(N)=O)C(C)C` (racemic) [Example 21], at PPAR-γ, the PPAR-γ induction ratio is 19.2. Besides, at PPAR-α, the PPAR-α induction ratio is on record as 45.0.

Take `CCCCCCCCCCCCNC(=O)C(NC(=O)CCCCCCCCCCC)C(C)C` (racemic) [Example 22]: on PPAR-γ, the PPAR-γ induction ratio is listed as 16.6. Further, the PPAR-α induction ratio at PPAR-α was 44.0.

In the case of `CCCCCCCCCCCC(=O)N[C@H](C(=O)NC1CCCCC1)C(C)C` (racemic) [Example 23, N-lauroyl-L-valine cyclohexylamide], the PPAR-γ induction ratio at PPAR-γ was determined as 21.3. Moreover, the PPAR-α induction ratio at PPAR-α was found to be 63.0.

In the case of `CCCCCCCCCCCC(=O)NC(C(=O)O)C(C(F)(F)F)C(F)(F)F` (racemic) [Example 34], the PPAR-γ induction ratio at PPAR-γ is on record as 2.7. In addition, the PPAR-α induction ratio on PPAR-α is 2.3.

`CCCCCCCCCCCC(=O)NC(Cc1ccccc1C)C(=O)O` (racemic) [Example 38]: the PPAR-γ induction ratio on PPAR-γ was 3.2. On PPAR-α, the PPAR-α induction ratio amounted to 2.8.

In the case of `CCCCCCCCCCCC(=O)NC(C)(Cc1ccccc1)C(=O)O` (racemic) [Example 41], the PPAR-γ induction ratio at PPAR-γ is listed as 5.1. In addition, on PPAR-α, the PPAR-α induction ratio is 7.3.

In the case of `CCCCCCCC(=O)N[C@H](C(=O)O)C(C)C` [Example 1], the PPAR-γ induction ratio at PPAR-γ is given as 11.9. Also, the PPAR-α induction ratio at PPAR-α is 1.5.

For `CCCCCCCCC(=O)N[C@H](C(=O)O)[C@@H](C)CC` [Example 2], the PPAR-γ induction ratio on PPAR-γ turned out to be 12.5. In addition, the PPAR-α induction ratio on PPAR-α is recorded as 2.1.

With `CCCCCCCCC(=O)N[C@@H](CC(C)C)C(=O)O` [Example 3], the PPAR-γ induction ratio at PPAR-γ worked out at 6.1. The PPAR-α induction ratio on PPAR-α is recorded as 0.9.

For `CCCCCCCCC(=O)N[C@H](C(=O)O)C(C)C` [Example 4], the PPAR-γ induction ratio at PPAR-γ came to 12.9. Also, the PPAR-α induction ratio at PPAR-α is 3.1.

For `CCCCCCCCCC(=O)N[C@H](C(=O)O)[C@@H](C)CC` [Example 5], the PPAR-γ induction ratio on PPAR-γ amounted to 15.9. Further, on PPAR-α, the PPAR-α induction ratio came out at 3.5.

For the compound `CCCCCCCCCC(=O)N[C@@H](CC(C)C)C(=O)O` [Example 6], the PPAR-γ induction ratio on PPAR-γ is given as 9.5. For the same compound, the PPAR-α induction ratio at PPAR-α was found to be 1.3.

As for `C=CCCCCCCCCC(=O)N[C@@H](CC(C)C)C(=O)O` [Example 7], the PPAR-γ induction ratio on PPAR-γ is recorded as 11.5. Also, the PPAR-α induction ratio at PPAR-α was 2.7.

As to `C=CCCCCCCCCC(=O)N[C@@H](Cc1ccccc1)C(=O)O` [Example 8], on PPAR-γ, the PPAR-γ induction ratio is on record as 4.4. Also, the PPAR-α induction ratio on PPAR-α stood at 1.3.

Take `CCCCCCCCCC(=O)N[C@H](C(=O)O)C(C)C` [Example 9]: the PPAR-γ induction ratio at PPAR-γ is 25.4. Besides, the PPAR-α induction ratio at PPAR-α is recorded as 19.0.

Take `C=CCCCCCCCCC(=O)N[C@H](C(=O)O)C(C)C` [Example 10]: the PPAR-γ induction ratio on PPAR-γ is 15.3. Moreover, the PPAR-α induction ratio at PPAR-α came out at 23.0.

Consider `CCCCCCCCCCC(=O)N[C@@H](CC(C)C)C(=O)O` [Example 11], for which the PPAR-γ induction ratio at PPAR-γ amounted to 11.6. The PPAR-α induction ratio at PPAR-α is 3.0.

With `CCCCCCCCCCC(=O)N[C@@H](Cc1ccccc1)C(=O)O` [Example 12], the PPAR-γ induction ratio at PPAR-γ stood at 4.2. The PPAR-α induction ratio at PPAR-α came out at 1.4.

For the compound `CCCCCCCCCCCC(=O)N[C@H](C(=O)O)[C@@H](C)CC` [Example 14], the PPAR-γ induction ratio at PPAR-γ worked out at 20.5. The PPAR-α induction ratio on PPAR-α stood at 51.0.

In the case of `CCCCCCCCCCCC(=O)N[C@@H](CC(C)C)C(=O)O` [Example 15], on PPAR-γ, the PPAR-γ induction ratio is 9.7. For the same compound, the PPAR-α induction ratio on PPAR-α stood at 11.0.

Consider `CCCCCCCCCCCC(=O)NC(C)(C)C(=O)O` [Example 17], for which, at PPAR-γ, the PPAR-γ induction ratio is 20.3. The PPAR-α induction ratio at PPAR-α worked out at 32.0.

On to `CCCCCCCCCCCC(=O)N[C@@H](CCSC)C(=O)O` [Example 19], for which the PPAR-γ induction ratio on PPAR-γ worked out at 20.9. The PPAR-α induction ratio at PPAR-α stood at 24.0.

As for `CCCCCCCCCCCC(=O)N[C@H](C(=O)O)C(C)C` [Example 20, N-lauroyl-L-valine], the PPAR-γ induction ratio on PPAR-γ worked out at 19.1. The PPAR-α induction ratio on PPAR-α worked out at 52.0.

For `CCCCCCCCCCCC(=O)N(CC)[C@H](C(=O)O)C(C)C` [Example 24], the PPAR-γ induction ratio at PPAR-γ is on record as 16.4. For the same compound, the PPAR-α induction ratio on PPAR-α is 46.0.

Turning to `CCCCCCCCCCCCCC(=O)N[C@H](C(=O)O)[C@@H](C)CC` [Example 25], at PPAR-γ, the PPAR-γ induction ratio amounted to 27.4. Further, the PPAR-α induction ratio at PPAR-α came to 50.0.

On to `CCCCCCCCCCCCCC(=O)N[C@@H](CC(C)C)C(=O)O` [Example 26], for which the PPAR-γ induction ratio on PPAR-γ stood at 21.0. In addition, the PPAR-α induction ratio at PPAR-α is listed as 33.0.

With `CCCCCCCCCCCCCCCC(=O)N[C@@H](CC(C)C)C(=O)O` [Example 27], at PPAR-γ, the PPAR-γ induction ratio is listed as 11.7. Further, the PPAR-α induction ratio at PPAR-α is recorded as 2.5.

As to `CCCCCCCCCCCCCCCC(=O)N[C@H](C(=O)O)C(C)C` [Example 28], the PPAR-γ induction ratio on PPAR-γ came out at 17.1. For the same compound, the PPAR-α induction ratio on PPAR-α stood at 29.0.

Consider `CCCCCCCCCCCCCCCCCC(=O)N[C@@H](CC(C)C)C(=O)O` [Example 29], for which the PPAR-γ induction ratio on PPAR-γ is given as 12.3. For the same compound, the PPAR-α induction ratio at PPAR-α came to 1.6.

As for `CCCCCCCCCCCCCCCCCC(=O)N[C@H](C(=O)O)C(C)C` [Example 30], the PPAR-γ induction ratio at PPAR-γ is given as 13.7. Besides, the PPAR-α induction ratio at PPAR-α worked out at 15.0.

With `CCCCCCCCCCCCCCCCCCCCCC(=O)N[C@H](C(=O)O)C(C)C` [Example 31], on PPAR-γ, the PPAR-γ induction ratio is 4.4. Also, the PPAR-α induction ratio on PPAR-α is 1.2.

`CCCCCCCCCC(=O)N[C@H](C(=O)O)C(C)(C)C` [Example 32]: the PPAR-γ induction ratio on PPAR-γ was 15.2. In addition, on PPAR-α, the PPAR-α induction ratio worked out at 31.5.
